The source of these data is patent US5962513A, “2-aminomethyl-chromans effective in the treatment of psychoses and depression” (Bayer Aktiengesellschaft, priority 1991, dated 1999).

Structures can show the parent of a compound that is named as a salt.

For the first test, the target named is 5-HT1 receptor. Nature of the test: Affinity for the 5-HT1 receptor, 3H-serotonin binding to calf hippocampus membranes. The following applies: 3H-serotonin radioligand. From the text:
1.) Affinity for the 5-HT1 receptor
The high affinity of the compounds according to the invention for 5-hydroxytryptamine receptors of the sub-type 1 is shown by way of example in Table A. The values given are data which have been determined from receptor binding studies using calf hippocampus membrane preparations. ^3 H-Serotonin was used as the radioactively labelled ligand for this.
As for `COc1ccc(CNCC2CCc3cccc(OC)c3O2)cc1` (stereo not drawn) [Example 23], the Ki stood at 5 nM.
In turn, `CC(CCCNCC1CCc2ccccc2O1)c1ccccc1` (stereo not drawn) [Example 18] displayed an inhibition constant Ki of 3 nM.
`COc1cccc2c1O[C@@H](CN(C)CC1CCCCCC1)CC2` [Example 13, 2-(R)-2-(N-Cycloheptylmethyl-N-methyl)aminomethyl-8-methoxy-chroman hydrochloride]: the affinity, expressed as Ki, was 36 nM.
The same measure, in the same setting: to `COc1cccc2c1OC(CNCc1ccc(C(F)(F)F)cc1)CC2` (stereo not drawn) [Example 22] belongs 6 nM.

For the next test, the target named is T1, 5-HT1A receptor (Bos taurus, UniProt F6Q2H9).
T1 construct: 5-HT1A receptors in calf hippocampus membranes; from tissue; host or cells: calf hippocampus membranes
T1 sequence (F6Q2H9 1-422): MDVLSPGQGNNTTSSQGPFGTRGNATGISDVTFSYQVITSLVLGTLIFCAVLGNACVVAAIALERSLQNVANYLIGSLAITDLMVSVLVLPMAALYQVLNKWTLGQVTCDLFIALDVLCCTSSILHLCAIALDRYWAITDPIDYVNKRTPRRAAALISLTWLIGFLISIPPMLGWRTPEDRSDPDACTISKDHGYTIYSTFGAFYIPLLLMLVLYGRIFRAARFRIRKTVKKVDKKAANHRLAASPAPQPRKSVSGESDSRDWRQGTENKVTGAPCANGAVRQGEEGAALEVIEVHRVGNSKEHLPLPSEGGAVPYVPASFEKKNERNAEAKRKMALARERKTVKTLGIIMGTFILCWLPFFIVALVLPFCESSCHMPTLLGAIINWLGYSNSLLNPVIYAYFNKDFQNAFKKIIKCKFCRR
The test is described as follows: Affinity for the 5-HT1A receptor, 3H-ipsapiron binding to calf hippocampus membranes. The following applies: 3H-ipsapiron radioligand. The protocol: 2.) Affinity for the 5-HT1A receptor [W. U. Dompert et al., Naunyn-Schmeideberg's Arch. Pharmacol. (1985), 328, 467-470]. In this test, the binding of ^3 H-ipsapiron to 5-HT1A receptors in calf hippocampus membranes is measured.
The compound `c1ccc2c(c1)CCC(CNCC1CC1)O2` (stereo not drawn) [Example 28] had a Ki of 2.3 nM.
On the same count and under the same terms, next, `c1ccc(CN2CCC(CNCC3CCc4ccccc4O3)CC2)cc1` (stereo not drawn) [Example 36]: 0.5 nM; `c1ccc2c(c1)CCC(CNCC13CC4CC(CC(C4)C1)C3)O2` (stereo not drawn) [Example 31]: 4.2 nM; `CN(CC1CCN(Cc2ccccc2)CC1)CC1CCc2ccccc2O1` (stereo not drawn) [Example 35]: 28 nM.
In turn, `COc1cccc2c1OC(CNCC1CCCCC1)CC2` (stereo not drawn) [Example 17, N-Cyclohexylmethyl-2-aminomethyl-8-methoxychroman hydrochloride] yielded a Ki of 0.7 nM.

A further test addresses sigma receptor. The test is described as follows: Affinity for the sigma receptor, DTG binding to calf hippocampus membranes. The following applies: 3-di-o-tolyl-guanidine (DTG), Ki calculated from IC50. As for the experimental part:
3.) Affinity for the sigma receptor The sigma receptor binding test is described in detail by E. Weber et al. (1986), Proc. Natl. Acad. Sci. 83, 8784-8788 and M. P. Kavanaugh et al., (1988), Proc. Natl. Acad. Sci. 85, 2844. […] In this binding test, IC50 values which indicate the test substance concentration at which 50% of the binding of the radioligand is suppressed are determined. The inhibition constants Ki are calculated from these taking into account the dissociation constants and the concentration of radioligands.
Take `COc1ccc(CNCC2CCc3cccc(OC)c3O2)cc1` (stereo not drawn) [Example 23]: the Ki was 30 nM.
In the case of `c1ccc2c(c1)CC[C@@H](CNCC1CCCCCC1)O2` [Example 1, S-(+)-2-(N-Cycloheptylmethyl)aminomethyl-chroman hydrochloride], the Ki is 7 nM.
On the same count and under the same terms, next, `COc1cccc2c1O[C@@H](CN(C)CC1CCCCCC1)CC2` [Example 13, 2-(R)-2-(N-Cycloheptylmethyl-N-methyl)aminomethyl-8-methoxy-chroman hydrochloride]: 5 nM.
With `c1ccc(CN2CCC(CNCC3CCc4ccccc4O3)CC2)cc1` (stereo not drawn) [Example 36], the inhibition constant Ki is 25 nM.
For `c1ccc2c(c1)CCC(CNCC13CC4CC(CC(C4)C1)C3)O2` (stereo not drawn) [Example 31], the Ki was 16 nM.
The same measure, in the same setting: to `COc1cccc2c1OC(CNCC1CCCCC1)CC2` (stereo not drawn) [Example 17, N-Cyclohexylmethyl-2-aminomethyl-8-methoxychroman hydrochloride] belongs 8 nM.

A word on the Ki: it is a dissociation constant, usually derived from enzyme kinetics or from competition with a known ligand.
